Data set [1] is described as follows: Permeability study in Caco-2 cell line. Particulars: human; for efflux ratio at 2 h, 5 μM: Caco-2, pH 7.4; for Papp A→B at 2 h, 5 μM: Caco-2, apical to basolateral; for Papp A→B at 2 h, 5 μM / Papp B→A at 2 h, 5 μM: pH 7.4; for Papp B→A at 2 h, 5 μM: Caco-2, basolateral to apical. Format: in vitro ADME. Here is the method: Caco-2 cell suspensions were dispensed into the inserts of the 96-well HTS Transwell plate and cultivated for 14-18 days. Transepithelial electrical resistance (TEER) across the monolayer was measured using Millicell Epithelial Volt-Ohm measuring system. The Caco-2 plate was then washed twice with pre-warmed HBSS (pH 7.4) and incubated at 37° C. for 30 minutes. To determine the rate of drug transport in the apical to basolateral direction. 5 μM test compound was added to the Transwell insert and the wells in the receiver plate were filled with HBSS (pH 7.4). To determine the rate of drug transport in the basolateral to apical direction, 5 μM test compound was added to the receiver plate wells and then the Transwell inserts were filled with HBSS (pH 7.4). The plates were incubated at 37° C. for 2 hours. 50 μL samples from donor sides and receiver sides were transferred to wells of a new 96-well plate followed by the addition of 4 volume of cold methanol containing internal standards (IS). Samples were centrifuged and the supernatant was used for LC-MS/MS analysis. After the incubation, residue solutions were removed from the Transwell plates, and Lucifer yellow (100 μM) solution was added to each Transwell insert, followed by filling the receiver wells with HBSS. The plates were incubated at 37° C. for 30 minutes. 80 μL samples were removed from the apical and basolateral wells and the fluorescence of Lucifer yellow was measured in a microplate reader with 485 nm excitation and 530 nm emission.
A general note: Passage across Caco-2 layers is used to estimate intestinal permeability.

Data set [2] in a line: Microsome stability study. The class given is in vitro ADME, mouse. Particulars: for half-life at 2 μM / microsomal CLint at 2 μM / CLint scaled at 2 μM: CD-1, pH 7.4; for half-life at 2 μM / microsomal CLint at 2 μM: male mouse liver microsomes 0.5 mg/mL, NADPH; for CLint scaled at 2 μM: male, read-out: Scaled-up CLint; for CLint scaled at 2 μM / Predicted hepatic CL: mouse liver microsomes. Here is the method: Pooled CD-1 mouse liver microsomes at 0.5 mg/mL were pre-incubated in phosphate buffer (100 mM, pH 7.4) containing 1 mM NADPH and 3 mM MgCl2 in a 96-well plate for 5 minutes at 37° C. Ultra-pure water was added instead of NADPH in the negative control group to exclude the misleading factor that resulted from instability of chemical itself. The reaction was initiated by adding test compound at the final concentration of 2 μM and incubated at 37° C. Aliquots were taken from the incubation at 0, 15, 30, 45 and 60 minutes followed by the addition of 4 volume of cold acetonitrile containing internal standards. Samples were centrifuged and supernatant was used for LC-MS/MS analysis.

Where [3] appears, read: Caco-2, pH 7.4, Caco-2, apical to basolateral, read-out: Recovery (%)AP-BL.
The mark [4] stands for this setting: Caco-2, pH 7.4, Caco-2, basolateral to apical, read-out: Recovery (%)BL-AP.

In general, efflux ratio refers to the permeability from basolateral to apical divided by that in the opposite direction, in the common usage. For orientation: Papp A→B means the apparent permeability from the apical to the basolateral side of a cell layer. As a reminder, the Papp B→A is how fast a substance crosses the layer from the basolateral side. A word on the half-life: it is the time needed for the level to fall by half in the phase considered. A higher half-life goes with slow loss. For orientation: microsomal CLint means the rate of metabolic loss divided by the concentration. A high value points to rapid turnover. What is called CLint scaled is the rate of metabolic loss divided by the concentration.

Molecules are shown by their SMILES. Read-outs that look alike come from different tables or passages of the source.

With `NCc1ccc(S(=O)(=O)N2C[C@H](C(=O)N3CCS(=O)(=O)CC3)C[C@@H](c3ccccc3)C2)s1.O=C(O)C(F)(F)F` (racemic) [Example 75B, trans-(1-((5-(Aminomethyl)thiophen-2-yl)sulfonyl)-5-phenylpiperidin-3-yl)(1,1-dioxidothiomorpholino)methanone 2,2,2-trifluoroacetate], in data set [1], the efflux ratio at 2 h, 5 μM turned out to be 30.1; the Papp A→B at 2 h, 5 μM turned out to be 0.4 ×10⁻⁶ cm/s; the basolateral-to-apical permeability (Papp B→A) at 2 h, 5 μM is 12.1 ×10⁻⁶ cm/s. In addition, in data set [1] (setting [3]), the recovery at 2 h, 5 μM was 72.1%. Besides, the recovery at 2 h, 5 μM in data set [1] (setting [4]) is 83.5%. In data set [2], the half-life at 2 μM is 37.1 min, the microsomal CLint at 2 μM was 37.3 µL/min/mg, the CLint scaled at 2 μM stood at 163 mL/min/kg and the “Predicted hepatic CL” value is 58.02 mL/min/kg.
As for `CS(=O)(=O)N1CCN(C(=O)[C@H]2C[C@@H](c3ccccc3F)CN(S(=O)(=O)c3ccc(CN)s3)C2)CC1.O=C(O)C(F)(F)F` (racemic) [Example 91, cis-(1-((5-(Aminomethyl)thiophen-2-yl)sulfonyl)-5-(2-fluorophenyl)piperidin-3-yl)(4-(methylsulfonyl)piperazin-1-yl)methanone 2,2,2-trifluoroacetate], in data set [1], the efflux ratio at 2 h, 5 μM is 138; the apparent permeability from apical to basolateral (Papp A→B) at 2 h, 5 μM is 0.11 ×10⁻⁶ cm/s; the apparent permeability from basolateral to apical (Papp B→A) at 2 h, 5 μM is 15.6 ×10⁻⁶ cm/s. The recovery at 2 h, 5 μM in data set [1] (setting [3]) was determined as 68.6%. The recovery at 2 h, 5 μM in data set [1] (setting [4]) amounted to 78.2%. In data set [2], the half-life at 2 μM came to 24.5 min, the intrinsic clearance (microsomal CLint) at 2 μM was found to be 56.5 µL/min/mg, the intrinsic metabolic clearance (CLint scaled) at 2 μM worked out at 247 mL/min/kg and the “Predicted hepatic CL” value is 65.98 mL/min/kg.
For the compound `NCc1ccc(S(=O)(=O)N2C[C@@H](C(=O)N3CCOCC3)C[C@@H](C3CCCCC3)C2)s1.O=C(O)C(F)(F)F` (racemic) [Example 120, cis-(1-((5-(Aminomethyl)thiophen-2-yl)sulfonyl)-5-cyclohexylpiperidin-3-yl)(morpholino)methanone 2,2,2-trifluoroacetate], in data set [2], the half-life at 2 μM worked out at 37 min, the microsomal CLint at 2 μM came to 37.4 µL/min/mg, the CLint scaled at 2 μM was determined as 164 mL/min/kg and the “Predicted hepatic CL” value is 58.07 mL/min/kg.
Turning to `NCc1ccc(S(=O)(=O)N2C[C@H](C(=O)N3CCOCC3)C[C@H](c3ccccc3)C2)s1` [Example 13B, ((3R,5R)-1-((5-(aminomethyl)thiophen-2-yl)sulfonyl)-5-phenylpiperidin-3-yl)(morpholino)methanone], in data set [1], the efflux ratio at 2 h, 5 μM came to 24.5; the apparent permeability from apical to basolateral (Papp A→B) at 2 h, 5 μM was found to be 1.16 ×10⁻⁶ cm/s; the Papp B→A at 2 h, 5 μM came out at 28.5 ×10⁻⁶ cm/s. The recovery at 2 h, 5 μM in data set [1] (setting [3]) came out at 76.8%. In data set [1] (setting [4]), the recovery at 2 h, 5 μM stood at 78.8%. Also, in data set [2], the half-life at 2 μM was found to be 79.7 min, the microsomal CLint at 2 μM is 17.4 µL/min/mg, the intrinsic clearance (CLint scaled) at 2 μM is 76.1 mL/min/kg and the “Predicted hepatic CL” value is reported as 41.24 mL/min/kg.

The values are drawn from US20230310445A1, “LOX ENZYME INHIBITING METHODS AND COMPOSITIONS” (ANOVIA BIOSCIENCES, INC., priority 2020, published 2023).
